According to patent US20100069347A1, “HETEROCYCLYL-SUBSTITUTED ANTI-HYPERCHOLESTEROLEMIC COMPOUNDS” (priority 2006, published 2010):

Legend:
cholesterol absorption = assay: Cholesterol Absorption Assay in Rat; assay type: in vivo; conditions: CD male rats, oral dosing, at the highest dose tested (0.0003 to 1 mg/kg); [3H]-cholesterol counts in liver and plasma
Protocol: Compounds of this invention were determined to inhibit cholesterol absorption employing the Cholesterol Absorption Assay in Rat, below. This assay involves comparing a test compound to ezetimibe with respect to their ability to inhibit cholesterol absorption in rat.
Cholesterol Absorption Assay in Rats: CD male rats (n=5/group), aged 5 weeks, were dosed orally with 0.5 ml 0.25% methyl cellulose solution with or without test compound or ezetimibe (0.0003 to 1 mg/kg). 0.5 to 16 hrs later all of the rats were dosed orally with 0.5 ml INTRALIPID® containing 5 μCi [^3H]-cholesterol per rat. Five hours later, the animals were euthanized, and liver and blood were collected. Cholesterol counts in liver and plasma were determined, and percent inhibition of cholesterol absorption was calculated.

Row | melting point | Compound | inhibition of cholesterol absorption (cholesterol absorption)
1 | 104 °C | O=C1[C@H](CC[C@H](O)c2ccc(F)cc2)[C@@H](c2ccc(CCC(O)(CO)CO)cc2)N1c1ccc(CCc2nc[nH]n2)cc1 [Example 2, (3R,4S)-4-{4-[3,4-dihydroxy-3-(hydroxymethyl)butyl]phenyl}-3-[(3S)-3-(4-fluorophenyl)-3-hydroxypropyl]-1-{4-[2-(1H-1,2,4-triazol-5-yl)ethyl]phenyl}azetidin-2-one] | –
2 | – | O=C1[C@H](CC[C@H](O)c2ccc(F)cc2)[C@@H](c2ccc(O)cc2)N1c1ccc(F)cc1 [ezetimibe, Ezetimibe] | > 90%
